Test results published in patent US4311699A, “Aminoacid derivatives of cephalosporin compounds” (priority 1980, dated 1982).
In brackets after ≈: the same amount, converted by molar mass.

Key:
Assay in all cases: in vitro antibacterial activity, minimal inhibitory concentration
Format in all cases: cell-based
Entero. cloacae = settings: for MIC: Enterobacter cloacae
Excerpt: (§1) The compounds of the invention are new chemical compounds that are used as pharmacological agents and especially as broad spectrum antibacterial agents. They are active in vitro against strains of both gram-positive and gram-negative bacteria.
(§2) Minimal Inhibitory Concentration (μg/ml)

E. coli Vogel = settings: for MIC: Escherichia coli
Excerpt: as §1, §2

Staph. aureus S18733 = settings: for MIC: Staphylococcus aureus
Excerpt: as §1, §2

Klebs. pneu. = tested on: Klebs. pneu.
Excerpt: as §1, §2

E. coli Brig = settings: for MIC: Escherichia coli
Excerpt: as §1, §2

Staph. aureus UC-76 = settings: Staph. aureus UC-76, in vitro; for MIC: Staphylococcus aureus, UC76
Excerpt: as §1, §2

Pseudomonas UI 18 = settings: Pseudomonas UI 18, in vitro; for MIC: UI18
Excerpt: as §1, §2

Prot. vulg. = tested on: Prot. vulg.
Excerpt: as §1, §2

Strep. fec. = tested on: Strep. fec.
Excerpt: as §1, §2

Pseudomonas #28 = settings: Pseudomonas #28, in vitro; for MIC: read-out: Minimal Inhibitory Concentration
Excerpt: as §1, §2

Pseudomonas BRK 12-4-4 = settings: Pseudomonas BRK 12-4-4, in vitro; for MIC: BRK1244
Excerpt: as §1, §2

Serr. marces. = tested on: Serr. marces.
Excerpt: as §1, §2

Compound	MIC (Entero. cloacae)	MIC (E. coli Vogel)	MIC (Staph. aureus S18733)	MIC (Klebs. pneu.)	MIC (E. coli Brig)	MIC (Staph. aureus UC-76)	MIC (Pseudomonas UI 18)	MIC (Prot. vulg.)	MIC (Strep. fec.)	MIC (Pseudomonas #28)	MIC (Pseudomonas BRK 12-4-4)	MIC (Serr. marces.)	further results
CC(=O)OCC1=C(C(=O)O)N2C(=O)[C@@H](NC(=O)[C@H](NC(=O)c3cnc(-c4ccc(NC(=O)[C@@H](C)N)cc4)nc3O)c3ccccc3)[C@H]2SC1 [Example 18, N-[2-[4-(D-Alanylamino)phenyl]-4-hydroxy-5-pyrimidinylcarbonyl]-7-[D-2-amino-2-phenylacetamido]-3-acetoxymethyl-3cephem-4-carboxylic acid]	50 µg/mL (≈ 72.5 µM)	12.5 µg/mL (≈ 18.1 µM)	6.3 µg/mL (≈ 9.13 µM)	25 µg/mL (≈ 36.2 µM)	50 µg/mL (≈ 72.5 µM)	1.6 µg/mL (≈ 2.32 µM)	1.6 µg/mL (≈ 2.32 µM)	25 µg/mL (≈ 36.2 µM)	25 µg/mL (≈ 36.2 µM)	3.1 µg/mL (≈ 4.49 µM)	6.3 µg/mL (≈ 9.13 µM)	> 50 µg/mL	
CC(=O)N[C@H](C)C(=O)Nc1ccc(-c2ncc(C(=O)N[C@@H](C(=O)N[C@@H]3C(=O)N4C(C(=O)O)=C(COC(C)=O)CS[C@H]34)c3cccs3)c(O)n2)cc1 [Example 19, N-[2-[4-(N-Acetyl-D-alanylamino)phenyl]-4-hydroxy-5-pyrimidinylcarbonyl]-7-[D-2-amino-2-(2-thienyl)acetamido]-3-acetoxymethyl-3-cephem-4-carboxylic acid]	50 µg/mL (≈ 67.8 µM)	12.5 µg/mL (≈ 16.9 µM)	1.6 µg/mL (≈ 2.17 µM)	12.5 µg/mL (≈ 16.9 µM)	> 50 µg/mL	0.8 µg/mL (≈ 1.08 µM)	6.3 µg/mL (≈ 8.54 µM)	25 µg/mL (≈ 33.9 µM)	25 µg/mL (≈ 33.9 µM)	6.3 µg/mL (≈ 8.54 µM)	6.3 µg/mL (≈ 8.54 µM)	> 50 µg/mL	
CC(=O)N[C@H](C)C(=O)Nc1ccc(-c2ncc(C(=O)N[C@@H](C(=O)N[C@@H]3C(=O)N4C(C(=O)O)=C(COC(N)=O)CS[C@H]34)c3ccccc3)c(O)n2)cc1 [Example 21]	25 µg/mL (≈ 34.1 µM)	12.5 µg/mL (≈ 17.1 µM)	1.6 µg/mL (≈ 2.18 µM)	12.5 µg/mL (≈ 17.1 µM)	25 µg/mL (≈ 34.1 µM)	0.8 µg/mL (≈ 1.09 µM)	12.5 µg/mL (≈ 17.1 µM)	12.5 µg/mL (≈ 17.1 µM)	25 µg/mL (≈ 34.1 µM)	3.1 µg/mL (≈ 4.23 µM)	12.5 µg/mL (≈ 17.1 µM)	> 50 µg/mL	
CC(=O)NCC(=O)Nc1ccc(-c2ncc(C(=O)N[C@@H](C(=O)NC3C(=O)N4C(C(=O)O)=C(CSc5nnnn5C)CSC34)c3ccccc3)c(O)n2)cc1 (stereo partly drawn) [Example 22]	6.3 µg/mL (≈ 8.14 µM)	0.8 µg/mL (≈ 1.03 µM)	3.1 µg/mL (≈ 4.01 µM)	0.8 µg/mL (≈ 1.03 µM)	6.3 µg/mL (≈ 8.14 µM)	1.6 µg/mL (≈ 2.07 µM)	12.5 µg/mL (≈ 16.2 µM)	6.3 µg/mL (≈ 8.14 µM)	50 µg/mL (≈ 64.6 µM)	6.3 µg/mL (≈ 8.14 µM)	12.5 µg/mL (≈ 16.2 µM)	50 µg/mL (≈ 64.6 µM)	
CC(=O)N[C@H](C)C(=O)Nc1ccc(-c2ncc(C(=O)N[C@@H](C(=O)NC3C(=O)N4C(C(=O)O)=C(CSc5nnnn5C)CSC34)c3ccccc3)c(O)n2)cc1 (stereo partly drawn) [Example 25, N-[2-[4-(N-Acetyl-D-alanylamino)phenyl]-4-hydroxy-5-pyrimidinylcarbonyl]-7-[D-2-amino-2-phenylacetamido]-3-[[(1-methyl-1H-tetrazol-5-yl)thio]methyl]-3-cephem-4-carboxylic acid]	6.3 µg/mL (≈ 8 µM)	3.1 µg/mL (≈ 3.93 µM)	6.3 µg/mL (≈ 8 µM)	3.1 µg/mL (≈ 3.93 µM)	6.3 µg/mL (≈ 8 µM)	1.6 µg/mL (≈ 2.03 µM)	6.3 µg/mL (≈ 8 µM)	12.5 µg/mL (≈ 15.9 µM)	> 50 µg/mL	3.1 µg/mL (≈ 3.93 µM)	6.3 µg/mL (≈ 8 µM)	50 µg/mL (≈ 63.5 µM)	
CC(=O)N[C@@H](C)C(=O)Nc1ccc(-c2ncc(C(=O)N[C@@H](C(=O)NC3C(=O)N4C(C(=O)O)=C(CSc5nnnn5C)CSC34)c3ccccc3)c(O)n2)cc1 (stereo partly drawn) [Example 26, N-[2-[4-(N-Acetyl-L-alanylamino)phenyl]-4-hydroxy-5-pyrimidinylcarbonyl]-7-[D-2-amino-2-phenylacetamido]-3-[[(1-methyl-1H-tetrazol-5-yl)thio]methyl]-3-cephem-4-carboxylic acid]	12.5 µg/mL (≈ 15.9 µM)	3.1 µg/mL (≈ 3.93 µM)	12.5 µg/mL (≈ 15.9 µM)	6.3 µg/mL (≈ 8 µM)	12.5 µg/mL (≈ 15.9 µM)	6.3 µg/mL (≈ 8 µM)	12.5 µg/mL (≈ 15.9 µM)	12.5 µg/mL (≈ 15.9 µM)	50 µg/mL (≈ 63.5 µM)	6.3 µg/mL (≈ 8 µM)	12.5 µg/mL (≈ 15.9 µM)	50 µg/mL (≈ 63.5 µM)	
CC(=O)NCCCC(=O)Nc1ccc(-c2ncc(C(=O)N[C@@H](C(=O)NC3C(=O)N4C(C(=O)O)=C(CSc5nnnn5C)CSC34)c3ccccc3)c(O)n2)cc1 (stereo partly drawn) [Example 27, N-[2-[4-(N-Acetyl-aminobutyrylamino)phenyl]-4-hydroxy-5-pyrimidinylcarbonyl]-7-[D-2-amino-2-phenylacetamido]-3-[[(1-methyl-1H-tetrazol-5-yl)thio]methyl]-3-cephem-4-carboxylic acid]	6.3 µg/mL (≈ 7.86 µM)	1.6 µg/mL (≈ 2 µM)	6.3 µg/mL (≈ 7.86 µM)	1.6 µg/mL (≈ 2 µM)	12.5 µg/mL (≈ 15.6 µM)	1.6 µg/mL (≈ 2 µM)	6.3 µg/mL (≈ 7.86 µM)	12.5 µg/mL (≈ 15.6 µM)	25 µg/mL (≈ 31.2 µM)	3.1 µg/mL (≈ 3.87 µM)	12.5 µg/mL (≈ 15.6 µM)	25 µg/mL (≈ 31.2 µM)	
CC(=O)NC(C)(C)C(=O)Nc1ccc(-c2ncc(C(=O)N[C@@H](C(=O)NC3C(=O)N4C(C(=O)O)=C(CSc5nnnn5C)CSC34)c3ccccc3)c(O)n2)cc1 (stereo partly drawn) [Example 28]	6.3 µg/mL (≈ 7.86 µM)	3.1 µg/mL (≈ 3.87 µM)	6.3 µg/mL (≈ 7.86 µM)	6.3 µg/mL (≈ 7.86 µM)	12.5 µg/mL (≈ 15.6 µM)	3.1 µg/mL (≈ 3.87 µM)	6.3 µg/mL (≈ 7.86 µM)	25 µg/mL (≈ 31.2 µM)	50 µg/mL (≈ 62.4 µM)	3.1 µg/mL (≈ 3.87 µM)	6.3 µg/mL (≈ 7.86 µM)	50 µg/mL (≈ 62.4 µM)	
CC(=O)N[C@@H](C(=O)Nc1ccc(-c2ncc(C(=O)N[C@@H](C(=O)NC3C(=O)N4C(C(=O)O)=C(CSc5nnnn5C)CSC34)c3ccccc3)c(O)n2)cc1)C(C)C (stereo partly drawn) [Example 29]	12.5 µg/mL (≈ 15.3 µM)	1.6 µg/mL (≈ 1.96 µM)	3.1 µg/mL (≈ 3.8 µM)	3.1 µg/mL (≈ 3.8 µM)	12.5 µg/mL (≈ 15.3 µM)	1.6 µg/mL (≈ 1.96 µM)	6.3 µg/mL (≈ 7.72 µM)	6.3 µg/mL (≈ 7.72 µM)	25 µg/mL (≈ 30.6 µM)	6.3 µg/mL (≈ 7.72 µM)	12.5 µg/mL (≈ 15.3 µM)	50 µg/mL (≈ 61.3 µM)	
CC(=O)N1C[C@H](O)C[C@H]1C(=O)Nc1ccc(-c2ncc(C(=O)N[C@@H](C(=O)NC3C(=O)N4C(C(=O)O)=C(CSc5nnnn5C)CS[C@H]34)c3ccccc3)c(O)n2)cc1 (stereo partly drawn) [Example 30, N-[2[4-(N-Acetyl-L-hydroxyprolylamino)phenyl]-4-hydroxy-5-pyrimidinylcarbonyl]-7-[D-2-amino2-phenylacetamido]-3-[[(1-methyl-1H-tetrazol-5-yl)thio]methyl]-3-cephem-4-carboxylic acid]													Minimal Inhibitory Concentration (Entero. cloacae): 6.3 µg/mL; Minimal Inhibitory Concentration (E. coli Vogel): 3.1 µg/mL; Minimal Inhibitory Concentration (Staph. aureus S18733): 12.5 µg/mL; Minimal Inhibitory Concentration (Klebs. pneu.): 3.1 µg/mL; Minimal Inhibitory Concentration (E. coli Brig): 12.5 µg/mL; Minimal Inhibitory Concentration (Staph. aureus UC-76): 3.1 µg/mL; Minimal Inhibitory Concentration (Pseudomonas UI 18): 6.3 µg/mL; Minimal Inhibitory Concentration (Prot. vulg.): 25 µg/mL; Minimal Inhibitory Concentration (Strep. fec.): > 50 µg/mL; Minimal Inhibitory Concentration (Pseudomonas #28): 6.3 µg/mL; Minimal Inhibitory Concentration (Pseudomonas BRK 12-4-4): 12.5 µg/mL; Minimal Inhibitory Concentration (Serr. marces.): > 50 µg/mL
CC(=O)N[C@H](C)C(=O)Nc1ccc(-c2ncc(C(=O)N[C@@H](C(=O)NC3C(=O)N4C(C(=O)O)=C(CSc5nnnn5C)CSC34)c3ccc(O)cc3)c(O)n2)cc1 (stereo partly drawn) [Example 31, N-[2[4-(N-Acetyl-D-alanylamino)phenyl]-4-hydroxy-5-pyrimidinyl-carbonyl]-7-[D-2-amino-2-(4-hydroxyphenyl)acetamido]-3-[[(1-methyl-1H-tetrazol-5-yl)thiol]methyl]-3-cephem-4-carboxylic acid]	6.3 µg/mL (≈ 7.84 µM)	1.6 µg/mL (≈ 1.99 µM)	6.3 µg/mL (≈ 7.84 µM)	1.6 µg/mL (≈ 1.99 µM)	6.3 µg/mL (≈ 7.84 µM)	3.1 µg/mL (≈ 3.86 µM)	3.1 µg/mL (≈ 3.86 µM)	6.3 µg/mL (≈ 7.84 µM)	25 µg/mL (≈ 31.1 µM)	3.1 µg/mL (≈ 3.86 µM)	3.1 µg/mL (≈ 3.86 µM)	50 µg/mL (≈ 62.2 µM)	
